Values joined by “and” are separate entries in the source; they are usually repeats but may differ in a detail not shown here. Identical values can stand only once. Counter-ions that a name gives are not always drawn. Like-named read-outs stand apart in the source and are kept apart here.
Columns and labels:
[1] = tested on: influenza A2; format: in vivo, NMRI mice; details: twice daily over 2.5 days; for Number of surviving animals: groups of 5 mice
[2] = tested on: viruses; details: literature; cited from earlier work
[3] = tested on: myxoviruses (influenza A2); experiment: microbe, parasite or virus in culture; format: cell-based, influenza A2 virus in Hela and Vero cells; details: read-out: MIC (minimum inhibitory concentration)
[4] = tested on: Herpes simplex Type 1; experiment: Herpes simplex Type 1 infection of NMRI mice, survival; format: in vivo; details: twice daily over 2.5 days; for Surviving animals: groups of 5 mice
Description: Pathogen-free NMRI mice having a weight of about 15 g were infected intraperitoneally with Herpes simplex Type 1 and then treated intraperitoneally, orally or subcutaneously with the compounds mentioned in Table 1. The treatment was carried out twice daily over the course of 2.5 days, starting after infection. The result of treatment was determined on the basis of the course of the disease and the survival rate compared to the untreated infection controls. The controls received a water-solublemethylhydroxyethylcellulose (viscosity […], administered in 2% strength solution) instead of the compounds to be tested. The experiments were carried out using groups of 5 mice each per preparation.
The chemotherapeutic action of the compound A can be seen from Table 1.

[5] = in vitro; details: hela and vero cells
[6] = literature; cited from earlier work

CCOP(=O)(Cc1ccccc1C=NNC(N)=S)OCC [D, Diethyl 2-formylbenzylphosphonate thiosemicarbazone]
Average survival time ([1]; po, 0.25 mg/kg): 8.0 days
Number of surviving animals ([1]; po, 0.25 mg/kg): 4
Average survival time ([1]; po, 2.5 mg/kg): 7.0 days
Number of surviving animals ([1]; po, 2.5 mg/kg): 1
Average survival time ([1]; po, 25 mg/kg): 7.3 days
Number of surviving animals ([1]; po, 25 mg/kg): 2

O=P(O)(O)CP(=O)(O)O [MDP, methylenediphosphonic acid]
antiviral activity [2]: exhibit antiviral activity

CCOP(=O)(O)Cc1ccccc1C=O [C, monoethyl 2-formylbenzylphosphonate triethylammonium salt]
MIC [3]: 44.4 µg/mL
Number of surviving animals ([1]; po, 0.25 mg/kg): 5
Average survival time ([1]; po, 2.5 mg/kg): 6.0 days
Number of surviving animals ([1]; po, 2.5 mg/kg): 2
Number of surviving animals ([1]; po, 25 mg/kg): 5
Number of surviving animals ([1]; sc, 0.25 mg/kg): 5
Number of surviving animals ([1]; sc, 2.5 mg/kg): 5
Average survival time ([1]; sc, 25 mg/kg): 7.5 days
Number of surviving animals ([1]; sc, 25 mg/kg): 3
Average survival time ([4]; po, 3 mg/kg): 9.0 days
Surviving animals ([4]; po, 3 mg/kg): 4
Average survival time ([4]; po, 10 mg/kg): 8.0 days
Surviving animals ([4]; po, 10 mg/kg): 3
Average survival time ([4]; po, 30 mg/kg): 8.3 days
Surviving animals ([4]; po, 30 mg/kg): 1
Average survival time ([4]; sc, 3 mg/kg): 8.5 days
Surviving animals ([4]; sc, 3 mg/kg): 1
Average survival time ([4]; sc, 10 mg/kg): 8.0 days
Surviving animals ([4]; sc, 10 mg/kg): 3
Average survival time ([4]; sc, 30 mg/kg): 10.0 days
Surviving animals ([4]; sc, 30 mg/kg): 4
MNTC [5]: > 400 µg/mL

CCOP(=O)(Cc1ccccc1C=O)OCC [A, diethyl 2-formylbenzylphosphonate]
Average survival time ([1]; po, 2.5 mg/kg): 9.0 days
Number of surviving animals ([1]; po, 2.5 mg/kg): 4
Average survival time ([1]; po, 3 mg/kg): 8.0 days
Number of surviving animals ([1]; po, 3 mg/kg): 4
Average survival time ([1]; po, 10 mg/kg): 7.0 days
Number of surviving animals ([1]; po, 10 mg/kg): 4
Average survival time ([1]; po, 25 mg/kg): 6.3 days
Number of surviving animals ([1]; po, 25 mg/kg): 2
Average survival time ([1]; po, 30 mg/kg): 7.3 days
Number of surviving animals ([1]; po, 30 mg/kg): 2
Average survival time ([1]; sc, 2.5 mg/kg): 6.7 days
Number of surviving animals ([1]; sc, 2.5 mg/kg): 2
Average survival time ([1]; sc, 25 mg/kg): 7.0 days
Number of surviving animals ([1]; sc, 25 mg/kg): 3
Average survival time ([4]; ip, 3 mg/kg): 8.0 days
Surviving animals ([4]; ip, 3 mg/kg): 0
Average survival time ([4]; ip, 10 mg/kg): 9.0 days
Surviving animals ([4]; ip, 10 mg/kg): 4
Average survival time ([4]; ip, 30 mg/kg): 8.5 days
Surviving animals ([4]; ip, 30 mg/kg): 3
Average survival time ([4]; po, 2.5 mg/kg): 8.0 days
Surviving animals ([4]; po, 2.5 mg/kg): 4
Surviving animals ([4]; po, 25 mg/kg): 5
Average survival time ([4]; po, 250 mg/kg): 8.0 days
Surviving animals ([4]; po, 250 mg/kg): 4
Average survival time ([4]; sc, 2.5 mg/kg): 9.0 days
Surviving animals ([4]; sc, 2.5 mg/kg): 2
Average survival time ([4]; sc, 25 mg/kg): 7.2 days
Surviving animals ([4]; sc, 25 mg/kg): 0
Average survival time ([4]; sc, 250 mg/kg): 8.4 days
Surviving animals ([4]; sc, 250 mg/kg): 0

NC12CC3CC(CC(C3)C1)C2 [Amantadine, reference compound]
Average survival time ([1]; po, 80 mg/kg): 8.0 days
Number of surviving animals ([1]; po, 80 mg/kg, 80 mg/kg): 5 and 4
Number of surviving animals ([1]; sc, 80 mg/kg): 5

O=C(O)P(=O)(O)O [PFA, phosphonoformic acid]
antiviral activity [2]: wide antiviral spectrum
toxic side effects [6]: some toxic side effects

O=C(O)CP(=O)(O)O [PAA, phosphonoacetic acid]
antiviral activity [2]: exhibit antiviral activity

CCOP(=O)(Cc1ccccc1C1O[C@H](c2ccccc2)[C@H](C)N1C)OCC (single isomer, unassigned) [F, Diethyl 2-(3,4-dimethyl-5-phenyloxazolidin-2-yl)benzylphosphonate]
Average survival time ([1]; po, 0.25 mg/kg): 6.5 days
Number of surviving animals ([1]; po, 0.25 mg/kg): 3
Average survival time ([1]; po, 2.5 mg/kg): 6.5 days
Number of surviving animals ([1]; po, 2.5 mg/kg): 3
Average survival time ([1]; po, 25 mg/kg): 7.0 days
Number of surviving animals ([1]; po, 25 mg/kg): 2

CCOP(=O)(Cc1ccccc1C=NNC(=O)c1cccnc1)OCC [E, Diethyl 2-formylbenzylphosphonate nicotinic acid hydrazone]
Average survival time ([1]; po, 0.25 mg/kg): 8.0 days
Number of surviving animals ([1]; po, 0.25 mg/kg): 4
Average survival time ([1]; po, 2.5 mg/kg): 6.7 days
Number of surviving animals ([1]; po, 2.5 mg/kg): 3
Average survival time ([1]; po, 25 mg/kg): 6.0 days
Number of surviving animals ([1]; po, 25 mg/kg): 3

O=Cc1ccccc1CP(=O)(O)O [B, 2-formylbenzylphosphonic acid di(triethylammonium) salt]
MIC [3]: 4.94 µg/mL
Average survival time ([1]; po, 1.5 mg/kg): 8.5 days
Number of surviving animals ([1]; po, 1.5 mg/kg): 3
Number of surviving animals ([1]; po, 15 mg/kg): 5
Average survival time ([1]; po, 150 mg/kg): 7.0 days
Number of surviving animals ([1]; po, 150 mg/kg): 3
Average survival time ([1]; sc, 1.5 mg/kg): 8.5 days
Number of surviving animals ([1]; sc, 1.5 mg/kg): 1
Average survival time ([1]; sc, 15 mg/kg): 8.0 days
Number of surviving animals ([1]; sc, 15 mg/kg): 4
Average survival time ([4]; po, 3 mg/kg): 7.0 days
Surviving animals ([4]; po, 3 mg/kg): 3
Average survival time ([4]; po, 10 mg/kg): 8.3 days
Surviving animals ([4]; po, 10 mg/kg): 2
Average survival time ([4]; po, 30 mg/kg): 6.0 days
Surviving animals ([4]; po, 30 mg/kg): 3
Average survival time ([4]; sc, 3 mg/kg): 7.8 days
Surviving animals ([4]; sc, 3 mg/kg): 2
Average survival time ([4]; sc, 10 mg/kg): 7.0 days
Surviving animals ([4]; sc, 10 mg/kg): 3
Average survival time ([4]; sc, 30 mg/kg): 6.5 days
Surviving animals ([4]; sc, 30 mg/kg): 3
MNTC [5]: > 400 µg/mL
